“And” between values parts separate entries of the source, which are not always exact repeats. Identical values can stand only once.
Tests used:
[1] = target: T1, OAT1 (Homo sapiens, UniProt Q4U2R8); assay: [14C]-urate uptake by OAT1-expressing Xenopus oocytes; type: cell-based; conditions: drug 100 μmol/L
T1 sequence (Q4U2R8 1-563): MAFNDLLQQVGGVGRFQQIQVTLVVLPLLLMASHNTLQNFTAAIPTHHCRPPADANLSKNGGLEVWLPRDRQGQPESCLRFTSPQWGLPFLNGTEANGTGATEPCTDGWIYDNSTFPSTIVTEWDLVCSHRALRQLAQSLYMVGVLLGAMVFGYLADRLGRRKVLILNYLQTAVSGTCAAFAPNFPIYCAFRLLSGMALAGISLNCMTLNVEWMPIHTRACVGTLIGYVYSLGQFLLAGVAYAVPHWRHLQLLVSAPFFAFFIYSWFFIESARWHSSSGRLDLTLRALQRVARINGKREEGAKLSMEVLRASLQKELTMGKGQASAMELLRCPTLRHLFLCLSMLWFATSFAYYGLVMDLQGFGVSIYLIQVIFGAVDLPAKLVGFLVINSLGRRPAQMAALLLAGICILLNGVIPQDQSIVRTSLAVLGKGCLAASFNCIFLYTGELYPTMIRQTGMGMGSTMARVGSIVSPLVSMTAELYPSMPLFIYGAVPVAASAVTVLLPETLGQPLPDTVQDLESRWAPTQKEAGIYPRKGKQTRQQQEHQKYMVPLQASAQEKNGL
Source text: (§1) For uptake experiments, oocytes were washed four times with ND96 medium (pH 7.4) without pyruvate and gentamycin.

[2] = target: T2, URAT1 (Homo sapiens, UniProt Q96S37); assay: [14C]-nicotinate uptake by URAT1-expressing Xenopus oocytes; type: cell-based
T2 sequence (Q96S37 1-553): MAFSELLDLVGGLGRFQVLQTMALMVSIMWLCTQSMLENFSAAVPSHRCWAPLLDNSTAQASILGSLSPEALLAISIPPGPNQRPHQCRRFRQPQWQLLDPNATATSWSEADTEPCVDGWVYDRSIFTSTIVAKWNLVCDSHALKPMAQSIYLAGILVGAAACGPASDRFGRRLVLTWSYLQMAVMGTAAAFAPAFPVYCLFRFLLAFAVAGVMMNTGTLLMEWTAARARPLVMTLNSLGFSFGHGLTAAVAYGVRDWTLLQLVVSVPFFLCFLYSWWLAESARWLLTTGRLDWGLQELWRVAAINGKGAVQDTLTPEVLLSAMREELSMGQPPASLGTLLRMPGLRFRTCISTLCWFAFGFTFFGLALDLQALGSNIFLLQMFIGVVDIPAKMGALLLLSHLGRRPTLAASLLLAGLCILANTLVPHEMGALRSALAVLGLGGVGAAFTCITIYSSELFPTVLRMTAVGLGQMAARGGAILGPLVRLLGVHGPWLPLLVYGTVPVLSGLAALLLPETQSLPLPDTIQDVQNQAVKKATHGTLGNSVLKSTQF
Source text: as §1
Data are mean ± S.E. with n = 12–15.

[3] = design: method as in Sundy and Kitt 2010; conditions: at least partially due to uricosuric effects; ref Sundy and Kitt 2010; cited from earlier work
[4] = system: inflammation induced by monosodium urate (MSU) crystals; design: method as in Serafini and Emerling 2010; conditions: ref Serafini and Emerling 2010; cited from earlier work

Structure (SMILES)	Inhibition of OAT1-mediated urate uptake [1]	Sensitivity of URAT1-mediated [14C]-nicotinate uptake to drug ([2]; data not shown)	Effect on SUA in healthy human subjects [3]	IC50 ([2]; PZA-preloaded oocytes, 40 μmol/L nicotinate, read-out: IC50, URAT1-mediated [14C]-nicotinate uptake ([14C]-nicotinate/PZA exchange))	Effect on inflammation induced by MSU crystals in vivo [4]
CCc1oc2ccccc2c1C(=O)c1cc(Br)c(O)c(Br)c1 [benzbromarone]	effectively inhibited	–	–	–	–
CCCN(CCC)S(=O)(=O)c1ccc(C(=O)O)cc1 [probenecid]	–	very sensitive	–	–	–
COc1ccc(C=CC(=O)Nc2ccccc2C(=O)O)cc1OC [tranilast, N‐(3,4‐dimethoxycinnamoyl) anthranilic acid]	effectively inhibited	–	potent reduction in SUA	~190 µM and 190 µM and > 185 µM	suppresses inflammation

Source: article PMC5368959, “Uricosuric targets of tranilast” (Pharmacology Research & Perspectives, 2017)
